# According to article PMC7468908 (Nutrients, 2020):
# Where “and” joins values, the source holds several entries; their conditions need not be identical. Equal values may be shown once. Read-outs that look alike come from different tables or passages of the source.
# Experiments:
# [1] = molecular target: T1, OATP1A2 (Homo sapiens, UniProt P46721); experiment: OATP1A2-mediated sulforhodamine 101 uptake in A431 cells overexpressing OATP1A2; format: cell-based; settings: for IC50: A431-OATP1A2 cells
# T1 construct: host or cells: A431
# T1 sequence (P46721 1-670): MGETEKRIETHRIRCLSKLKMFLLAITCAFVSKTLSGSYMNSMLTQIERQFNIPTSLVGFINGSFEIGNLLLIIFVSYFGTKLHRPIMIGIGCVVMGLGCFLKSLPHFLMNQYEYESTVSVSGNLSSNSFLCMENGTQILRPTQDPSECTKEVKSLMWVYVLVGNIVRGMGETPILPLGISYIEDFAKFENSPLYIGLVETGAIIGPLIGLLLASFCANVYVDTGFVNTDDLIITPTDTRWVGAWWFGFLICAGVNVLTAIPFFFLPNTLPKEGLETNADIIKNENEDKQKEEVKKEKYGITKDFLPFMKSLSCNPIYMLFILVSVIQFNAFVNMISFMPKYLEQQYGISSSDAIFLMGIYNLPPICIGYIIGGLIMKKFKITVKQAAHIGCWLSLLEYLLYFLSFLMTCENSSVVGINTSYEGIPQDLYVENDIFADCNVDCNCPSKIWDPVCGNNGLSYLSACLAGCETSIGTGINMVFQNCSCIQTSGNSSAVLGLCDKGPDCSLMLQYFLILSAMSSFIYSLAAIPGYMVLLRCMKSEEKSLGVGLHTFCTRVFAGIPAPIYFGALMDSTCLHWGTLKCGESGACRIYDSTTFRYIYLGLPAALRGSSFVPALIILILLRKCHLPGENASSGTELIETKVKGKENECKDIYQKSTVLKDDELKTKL
# Procedure: A431 cells overexpressing human OATPs, 1A2 (BC042452, HsCD00333163), 1B1 (Gene ID: AB026257), 1B3 (BC141525, HsCD00348132) or 2B1 (BC041095.1, HsCD00378878), or their mock transfected controls, were generated as previously described. Cells were cultured in Dulbecco’s Modified Eagle Medium (DMEM; Thermo Fischer Scientific, Waltham, MA, USA) supplemented with 10% fetal bovine serum, 2 mM L-glutamine, 100 units/mL penicillin and 100 µg/mL streptomycin, at 37 °C with 5% CO2.
# The interaction between flavonoids and OATPs was investigated in an indirect assay employing the fluorescent dye substrates, pyranine and sulforhodamine 101 [51, 52]. Briefly, A431 cell overexpressing OATPs, 1A2, 1B1, 1B3 or 2B1, or their mock transfected controls, were seeded on 96-well plates in a density of 8x10^4 cells/well in 200 μL DMEM one day prior to the transport measurements. […] The reaction was started by the addition of 50 μL uptake buffer containing pyranine in a final concentration of 10 μM (OATP1B1) or 20 μM (OATP1B3 and OATP2B1), or 0.5 μM sulforhodamine 101 (OATP1A2). Thereafter, cells were incubated at 37°C for 15 min (OATP1B1 and OATP2B1), 10 min (OATP1A2), or 30 min (OATP1B3). The reactions were stopped by removing the supernatants, then the cells were washed three times with ice-cold PBS. Fluorescence (in 200 μL PBS/well) was determined employing an Enspire plate reader (Perkin Elmer, Waltham, MA) ex/em: 403/517 nm (pyranine) or 586/605 nm (sulforhodamine 101). OATP-dependent transport was calculated by extracting fluorescence measured in mock transfected cells. Transport activity was calculated based on the fluorescence signal in the absence (100%) of flavonoids. Experiments were repeated at least in three biological replicates. IC50 values were calculated by Hill1 fit, using the Origin Pro8.6 software ([…]).
# [2] = some human subjects, 500 mg single dose of Q in certain oral carrier systems; cited from earlier work
# [3] = 0.5 μM sulforhodamine 101, 10 min
# [4] = 0.5 μM sulforhodamine 101, 10 min, read-out: IC50 for OATP1A2
Compound,"concentration causing statistically significant (p < 0.01) inhibition, OATP1A2 [1, 3]","IC50 [1, 4]","IC50 ([1]; IC50 for OATP1A2, 0.5 μM sulforhodamine 101, 10 min)",peak plasma concentrations of total Q [2]
"COc1cc(-c2oc3cc(O)cc(O)c3c(=O)c2O)ccc1O [IR, isorhamnetin]",3.1 µM,,> 30 µM,
"O=c1c(O)c(-c2ccc(O)c(O)c2)oc2cc(O)cc(O)c12 [Q, quercetin]",3.1 µM,10.1 µM,,5 to 10 µM

# Now from value to compound, other results behind:
"concentration causing statistically significant (p < 0.01) inhibition, OATP1A2 [1, 3]","IC50 [1, 4]",Compound,"IC50 ([1]; IC50 for OATP1A2, 0.5 μM sulforhodamine 101, 10 min)",peak plasma concentrations of total Q [2]
12.5 µM,> 30 µM,"COc1cc(-c2oc3cc(O)cc(O)c3c(=O)c2OC2OC(C(=O)O)C(O)C(O)C2O)ccc1O (centres unmarked) [I3G, isorhamnetin-3-glucuronide]",,
0.8 µM,4.9 µM and 4.92 µM,"O=c1c(O)c(-c2ccc(O)c(OS(=O)(=O)O)c2)oc2cc(O)cc(O)c12 [Q3′S, quercetin-3′-sulfate]",,
25 µM,> 30 µM,"O=C(O)C1OC(Oc2c(-c3ccc(O)c(O)c3)oc3cc(O)cc(O)c3c2=O)C(O)C(O)C1O (centres unmarked) [Q3G, quercetin-3-glucuronide]",,
